{
  "source": "patent US8465763B2",
  "about": "“3-hydroxychlormadinone acetate for the topical treatment of androgen-dependent skin diseases” (Richter Gedeon Nyrt., priority 2006, dated 2013)",
  "key": {"[1]": {"test": "Antiandrogenic efficacy compared with CMA", "settings": "no method described"}, "[2]": {"test": "Permeation through human abdominal skin in a flow-through cell", "type": "in vitro ADME", "settings": "for average dose released by human abdominal skin after 24 hours: mean of 3 independent experiments, 5% suspension in aqueous 0.05% polysorbate 80 solution, dissected skin approx. 300 μm, approx. 19.7 mm^2, 34° C., receptor fluid pH 7.35; for skin penetration compared with CMA (times lower) / skin permeability / skin penetration compared with CMA (in words): relative to CMA", "from_the_text": "Determination of Permeation of Chlormadinone Acetate (CMA) and 3β-Hydroxychlormadinone Acetate Through Human Abdominal Skin\nFragments of human abdominal skin arising during stomach reduction operations were placed in a Petri dish with dissection solution (Na^+: 144 mmol/l, K^+: 5.9 mmol/l, Ca^2+: 3.7 mmol/l, Cl,^−: 157 mmol/l). The skin fragments were reduced in thickness from the corium side, in several steps, down to a layer thickness of approx. 300 μm, while being kept moist with the dissection solution. Mechanically stable dissected skin was thus obtained, consisting of epidermis with approx. 150-200 μm of cutis. The layer thickness of the dissected skin fragments was determined by measuring with an external screw-type micrometer made by MITUTOYO. The area of the dissected skin fragments used amounted to approx. 19.7 mm^2.\nPermeation of CMA respectively 3β-hydroxychlormadinone acetate through human abdominal skin was determined in a flow-through cell, which is illustrated schematically in FIG. 1. A receptor fluid (1) was here pumped past the underside of the dissected skin (2) with a peristaltic pump at a rate of 270 μl per hour. The dissected skin was clamped between the upper part (3) and the lower part (4) of the permeability cell (5). From above, vehicle with 3β-hydroxychlormadinone acetate (5% suspension in aqueous 0.05% polysorbate 80 solution) or chlormadinone acetate (5% suspension in aqueous 0.05% polysorbate 80 solution) was applied in each case to the skin, which then diffused through the dissected skin (2) into the receptor fluid (1). The dissected skin was moistened by a stationary donor fluid (9), which is situated in a reservoir (7). The internal diameter of the receptor fluid feed line (6) was 0.6 mm, and the receptor fluid volume below the skin amounted to approx. 80 μl. The receptor fluid (1) was analysed at fixed intervals by means of a fraction collector (8) and then by HPLC. These experiments allowed a quantitative statement to be made about the amount of substance diffused as a function of time.\nAn aqueous, isotonic tris buffer (20 mmol/l) with 20% ethanol was used as the receptor fluid and adjusted with NaCl to 310 mosmol (0.9 wt. %). The pH value of the receptor fluid was 7.35. A hole punch was used to punch a piece corresponding to the area of the dissected skin out of a plaster containing the active ingredient to be investigated, said piece being stuck to the dissected skin. […] The experiments were carried out at a test temperature of 34° C. In each case 3 independent series of measurements were made with CMA respectively 3β-hydroxychlormadinone acetate."}},
  "note": "“Also recorded” adds a separate entry of the source.",
  "data": [
    {"compound": "CC(=O)O[C@]1(C(C)=O)CC[C@H]2[C@@H]3C=C(Cl)C4=C[C@@H](O)CC[C@]4(C)[C@H]3CC[C@@]21C", "note": "[3β-hydroxychlormadinone acetate, 17α-acetoxychloropregna-4,6-dien-3β-ol-20-one]", "values": [
      {"measurement": "antiandrogenic efficacy relative to CMA (ratio)", "setting": "[1]", "value": 0.7, "unit": "times"},
      {"measurement": "average dose released by human abdominal skin after 24 hours", "setting": "[2]", "value": 0.7, "unit": "µg"},
      {"measurement": "skin penetration compared with CMA (times lower)", "setting": "[2]", "value": 6, "unit": "times"},
      {"measurement": "skin permeability / skin penetration compared with CMA (in words)", "setting": "[2]", "value": "far lesser degree of skin penetration compared with CMA; also recorded: far less than that of CMA"}
    ]},
    {"compound": "CC(=O)O[C@]1(C(C)=O)CC[C@H]2[C@@H]3C=C(Cl)C4=C[C@H](O)CC[C@]4(C)[C@H]3CC[C@@]21C", "note": "[3α-hydroxychlormadinone acetate, 17α-acetoxychloropregna-4,6-dien-3α-ol-20-one]", "values": [
      {"measurement": "antiandrogenic efficacy relative to CMA (ratio)", "setting": "[1]", "value": 0.7, "unit": "times"},
      {"measurement": "skin penetration compared with CMA (times lower)", "setting": "[2]", "value": 6, "unit": "times"},
      {"measurement": "skin permeability / skin penetration compared with CMA (in words)", "setting": "[2]", "value": "far lesser degree of skin penetration compared with CMA"}
    ]},
    {"compound": "CC(=O)O[C@]1(C(C)=O)CC[C@H]2[C@@H]3C=C(Cl)C4=CC(=O)CC[C@]4(C)[C@H]3CC[C@@]21C", "note": "[CMA, chlormadinone acetate]", "values": [
      {"measurement": "average dose released by human abdominal skin after 24 hours", "setting": "[2]", "value": 4.4, "unit": "µg"}
    ]}
  ]
}
